# Experimental data as given in ChEMBL document CHEMBL1135263, “Reductive amination products containing naphthalene and indole moieties bind to melanocortin receptors” (Bioorg Med Chem Lett, 2002).
# Experiments:
# [1] = biological target: Melanocortin receptor 5 (Homo sapiens, UniProt P33032); assay: Tested for its binding affinity towards human recombinant Melanocortin 5 receptor by using radioligand binding assay
# [2] = biological target: Melanocortin receptor 4 (Homo sapiens, UniProt P32245); assay: Tested for its binding affinity towards human recombinant Melanocortin 4 receptor by using radioligand binding assay
# [3] = biological target: T1, Melanocortin receptor 3 (Homo sapiens, UniProt P41968); assay: Tested for its binding affinity towards human recombinant Melanocortin 3 receptor by using radioligand binding assay
# [4] = biological target: T2, Melanocyte-stimulating hormone receptor (Homo sapiens, UniProt Q01726); assay: Tested for its binding affinity towards human recombinant Melanocortin 1 receptor by using radioligand binding assay
# [5] = biological target: T1, Melanocortin receptor 3; assay: Tested for its binding affinity towards human recombinant Melanocortin 3 receptor by using radioligand binding assay; nb = no binding up to 0.5 mM
# [6] = biological target: T2, Melanocyte-stimulating hormone receptor; assay: Tested for its binding affinity towards human recombinant Melanocortin 1 receptor by using radioligand binding assay; nb = no binding up to 0.5 mM
# Chain of Melanocortin receptor 4 (P32245 whole entry): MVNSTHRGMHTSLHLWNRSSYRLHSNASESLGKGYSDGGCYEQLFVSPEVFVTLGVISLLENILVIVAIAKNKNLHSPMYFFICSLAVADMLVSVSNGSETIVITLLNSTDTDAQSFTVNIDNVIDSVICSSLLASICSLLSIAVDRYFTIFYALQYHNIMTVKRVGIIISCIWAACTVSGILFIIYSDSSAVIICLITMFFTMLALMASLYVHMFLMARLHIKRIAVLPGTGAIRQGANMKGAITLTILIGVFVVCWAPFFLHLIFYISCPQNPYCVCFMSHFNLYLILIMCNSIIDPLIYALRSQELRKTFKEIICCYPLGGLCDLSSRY
# T1 sequence (P41968 whole entry): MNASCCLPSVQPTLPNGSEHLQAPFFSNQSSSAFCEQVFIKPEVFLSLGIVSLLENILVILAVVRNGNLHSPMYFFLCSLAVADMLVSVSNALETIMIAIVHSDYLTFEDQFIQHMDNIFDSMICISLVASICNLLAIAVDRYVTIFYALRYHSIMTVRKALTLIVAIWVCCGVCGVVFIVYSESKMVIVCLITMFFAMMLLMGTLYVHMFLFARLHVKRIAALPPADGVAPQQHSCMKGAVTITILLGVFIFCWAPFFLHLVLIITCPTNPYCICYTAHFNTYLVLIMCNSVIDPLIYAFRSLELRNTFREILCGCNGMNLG
# Chain of Melanocortin receptor 5 (P33032 whole entry): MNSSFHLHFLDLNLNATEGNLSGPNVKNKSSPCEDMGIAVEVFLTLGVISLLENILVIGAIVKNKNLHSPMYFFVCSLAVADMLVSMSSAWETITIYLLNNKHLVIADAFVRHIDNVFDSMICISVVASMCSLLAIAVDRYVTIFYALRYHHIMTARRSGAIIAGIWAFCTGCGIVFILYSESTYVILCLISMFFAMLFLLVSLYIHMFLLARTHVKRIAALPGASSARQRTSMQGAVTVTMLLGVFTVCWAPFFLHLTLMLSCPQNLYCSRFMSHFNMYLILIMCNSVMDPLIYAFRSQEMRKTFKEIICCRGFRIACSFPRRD
# T2 sequence (Q01726 whole entry): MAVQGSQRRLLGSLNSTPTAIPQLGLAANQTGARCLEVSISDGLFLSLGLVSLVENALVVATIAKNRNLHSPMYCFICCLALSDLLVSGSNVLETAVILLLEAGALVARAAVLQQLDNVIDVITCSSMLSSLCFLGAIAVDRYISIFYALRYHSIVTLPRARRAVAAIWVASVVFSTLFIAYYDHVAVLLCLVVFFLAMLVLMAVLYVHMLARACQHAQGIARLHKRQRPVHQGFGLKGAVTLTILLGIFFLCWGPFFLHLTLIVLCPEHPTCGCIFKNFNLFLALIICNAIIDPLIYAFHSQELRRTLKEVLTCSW
SMILES,Ki [1] [µM],Ki [2] [µM],Ki [3] [µM],Ki [4] [µM],Ki [5],Ki [6]
N=C(N)NCCCNCc1c[nH]c2ccccc12,47,107,45,12,–,–
NCCCNCc1c[nH]c2ccccc12,150,104,145,28,–,–
c1ccc2cc(CNCCc3c[nH]c4ccccc34)ccc2c1,14,118,59,16,–,–
c1ccc2cc(CNCc3cccc4ccccc34)ccc2c1,100,> 1000,> 1000,> 1000,–,–
N=C(N)N1CCN(Cc2ccc3ccccc3c2)CC1,74,68,> 1000,> 1000,–,–
N=C(N)N1CCN(Cc2c[nH]c3ccccc23)CC1,> 1000,> 1000,> 1000,> 1000,–,–
"NC(N)=NCCCC(N)C(=O)N(CCc1c[nH]c2ccccc12)Cc1ccc2ccccc2c1 (single isomer, unassigned)",10,15,19,1.5,–,–
c1ccc2cc(CN3CCNCC3)ccc2c1,141,> 1000,> 1000,> 1000,–,–
c1ccc2c(CN3CCNCC3)c[nH]c2c1,256,> 1000,> 1000,> 1000,–,–
N[C@H](CCC(=O)O)C(=O)N(Cc1ccc2ccccc2c1)Cc1cccc2ccccc12,45,89,294,46,–,–
c1ccc2c(CCNCc3c[nH]c4ccccc34)c[nH]c2c1,18,161,86,32,–,–
NCCCNC(=O)[C@H](CNCc1c[nH]c2ccccc12)NCc1ccc2ccccc2c1,36,27,56,0.7,–,–
NC(N)=NCCC[C@H](N)C(=O)N(Cc1cccc2ccccc12)Cc1c[nH]c2ccccc12,12,70,52,11,–,–
NC(N)=NCCC[C@H](N)C(=O)N(Cc1ccc2ccccc2c1)Cc1cccc2ccccc12 (stereo in doubt; 11c),2.7,2.1,18,1.2,–,–
NCCCCNC(=O)[C@H](CCCCNCc1c[nH]c2ccccc12)NCc1ccc2ccccc2c1,173,24,167,9.8,–,–
c1ccc2c(CNCc3c[nH]c4ccccc34)cccc2c1,38,161,214,26,–,–
NCCNCc1ccc2ccccc2c1,83,8.8,–,–,Not Active,Not Active
NCCNC(=O)[C@H](CNCc1ccc2ccccc2c1)NCc1ccc2ccccc2c1,28,44,58,27,–,–
N=C(N)NCCCNCc1ccc2ccccc2c1,36,56,31,19,–,–
NCCCNCc1ccc2ccccc2c1,43,94,57,> 1000,–,–
NC(N)=NCCC[C@H](N)C(=O)N(Cc1ccc2ccccc2c1)Cc1cccc2ccccc12 (stereo in doubt; 11b),2.5,5.4,9,0.69,–,–
